{"source": "paper PMC11859928", "about": "“Design, Synthesis, and Antiproliferative Activity of Novel Indole/1,2,4-Triazole Hybrids as Tubulin Polymerization Inhibitors” (Pharmaceuticals, 2025)", "key": {"NCI-H23": {"test_system": "NCI-H23", "experiment": "NCI five-dose assay", "assay_type": "cell-based, human", "details": "NCI-H23, Non-small cell lung cancer"}, "NCI-H226": {"test_system": "NCI-H226", "experiment": "NCI five-dose assay", "assay_type": "cell-based, human", "details": "NCI-H226, Non-small cell lung cancer"}, "K-562": {"test_system": "K-562", "experiment": "NCI five-dose assay", "assay_type": "cell-based, human", "details": "K-562, Leukemia"}, "COLO205": {"test_system": "COLO205", "experiment": "NCI five-dose assay", "assay_type": "cell-based, human", "details": "COLO205, Colon cancer"}, "KM12": {"test_system": "KM12", "experiment": "NCI five-dose assay", "assay_type": "cell-based, human", "details": "KM12, Colon cancer"}, "Colon cancer subpanel": {"test_system": "Colon cancer subpanel", "experiment": "NCI five-dose assay, subpanel mean", "assay_type": "cell-based, human"}, "Renal cancer subpanel": {"test_system": "Renal cancer subpanel", "experiment": "NCI five-dose assay, subpanel mean", "assay_type": "cell-based, human"}, "A549/ATCC": {"test_system": "A549/ATCC", "experiment": "NCI five-dose assay", "assay_type": "cell-based, human", "details": "Non-small cell lung cancer"}, "Melanoma subpanel": {"test_system": "Melanoma subpanel", "experiment": "NCI five-dose assay, subpanel mean", "assay_type": "cell-based, human"}, "NCI-H322M": {"test_system": "NCI-H322M", "experiment": "NCI five-dose assay", "assay_type": "cell-based, human", "details": "Non-small cell lung cancer"}, "OVCAR-5": {"test_system": "OVCAR-5", "experiment": "NCI five-dose assay", "assay_type": "cell-based, human", "details": "OVCAR-5, Ovarian cancer"}, "[1]": {"test_system": "panel of 60 human tumor cell lines", "experiment": "NCI five-dose assay, full panel", "assay_type": "cell-based"}, "OVCAR-4": {"test_system": "OVCAR-4", "experiment": "NCI five-dose assay", "assay_type": "cell-based, human", "details": "OVCAR-4, Ovarian cancer"}, "A498": {"test_system": "A498", "experiment": "NCI five-dose assay", "assay_type": "cell-based, human", "details": "A498, Renal cancer"}, "M14": {"test_system": "M14", "experiment": "NCI five-dose assay", "assay_type": "cell-based, human", "details": "M14, Melanoma"}, "DU-145": {"test_system": "DU-145", "experiment": "NCI five-dose assay", "assay_type": "cell-based, human", "details": "DU-145, Prostate cancer"}, "HOP-62": {"test_system": "HOP-62", "experiment": "NCI five-dose assay", "assay_type": "cell-based, human", "details": "HOP-62, Non-small cell lung cancer"}, "OVCAR-3": {"test_system": "OVCAR-3", "experiment": "NCI five-dose assay", "assay_type": "cell-based, human", "details": "Homo sapiens, OVCAR-3, Ovarian cancer"}, "Ovarian cancer subpanel": {"test_system": "Ovarian cancer subpanel", "experiment": "NCI five-dose assay, subpanel mean", "assay_type": "cell-based, human"}, "OVCAR-8": {"test_system": "OVCAR-8", "experiment": "NCI five-dose assay", "assay_type": "cell-based, human", "details": "OVCAR-8, Ovarian cancer"}, "IGROV1": {"test_system": "IGROV1", "experiment": "NCI five-dose assay", "assay_type": "cell-based, human", "details": "IGROV1, Ovarian cancer"}, "SK-MEL-2": {"test_system": "SK-MEL-2", "experiment": "NCI five-dose assay", "assay_type": "cell-based, human", "details": "SK-MEL-2, Melanoma"}, "CAKI-1": {"test_system": "CAKI-1", "experiment": "NCI five-dose assay", "assay_type": "cell-based, human", "details": "CAKI-1, Renal cancer"}, "SR": {"test_system": "SR", "experiment": "NCI five-dose assay", "assay_type": "cell-based, human", "details": "Leukemia"}, "SF-295": {"test_system": "SF-295", "experiment": "NCI five-dose assay", "assay_type": "cell-based, human", "details": "SF-295, CNS cancer"}, "TK-10": {"test_system": "TK-10", "experiment": "NCI five-dose assay", "assay_type": "cell-based, human", "details": "TK-10, Renal cancer"}, "MDA-MB-435": {"test_system": "MDA-MB-435", "experiment": "NCI five-dose assay", "assay_type": "cell-based, human", "details": "MDA-MB-435, Melanoma"}, "[2]": {"details": "Homo sapiens, 48 h, read-out: LC50 (the source's name)"}, "[3]": {"details": "Homo sapiens, read-out: GI50 Conc. per Cell Lines"}}, "note": "Where two headings read alike, the source gives them in different places.", "data": [{"smiles": "Cc1ccc(/C(CSc2nnc(-c3c[nH]c4ccccc34)n2-c2ccccc2)=N/O)cc1", "note": "[Compound 7h, (Z)-2-((5-(1H-Indol-3-yl)-4-phenyl-4H-1,2,4-triazol-3-yl)thio)-1-(p-tolyl)ethanone Oxime]", "values": [{"measurement": "CC50", "setting": "NCI-H23; [2]", "value": "> 100", "unit": "µM"}, {"measurement": "GI50", "setting": "NCI-H23; [3]", "value": 10.1, "unit": "µM"}, {"measurement": "TGI Conc. per Cell Lines", "setting": "NCI-H23", "value": 52.20, "unit": "µM"}, {"measurement": "CC50", "setting": "NCI-H226; [2]", "value": 6.91, "unit": "µM"}, {"measurement": "GI50", "setting": "NCI-H226; [3]", "value": 1.63, "unit": "µM"}, {"measurement": "TGI Conc. per Cell Lines", "setting": "NCI-H226", "value": 3.36, "unit": "µM"}, {"measurement": "CC50", "setting": "K-562; Homo sapiens, K562, 48 h, read-out: LC50 (the source's name)", "value": "> 100", "unit": "µM"}, {"measurement": "GI50", "setting": "K-562; Homo sapiens, K562, read-out: GI50 Conc. per Cell Lines", "value": 2.01, "unit": "µM"}, {"measurement": "TGI Conc. per Cell Lines", "setting": "K-562", "value": 4.97, "unit": "µM"}, {"measurement": "TGI Conc. per Cell Lines", "setting": "COLO205", "value": 37.40, "unit": "µM"}, {"measurement": "CC50", "setting": "COLO205; Homo sapiens, COLO 205, 48 h, read-out: LC50 (the source's name)", "value": "> 100", "unit": "µM"}, {"measurement": "GI50", "setting": "COLO205; Homo sapiens, COLO 205, read-out: GI50 Conc. per Cell Lines", "value": 3.77, "unit": "µM"}, {"measurement": "CC50", "setting": "KM12; [2]", "value": "> 100", "unit": "µM"}, {"measurement": "GI50", "setting": "KM12; [3]", "value": 8.64, "unit": "µM"}, {"measurement": "TGI Conc. per Cell Lines", "setting": "KM12", "value": ">100", "unit": "µM"}, {"measurement": "GI50 Selectivity Ratio (MID a/MID b)", "setting": "Colon cancer subpanel; Colon cancer subpanel", "value": 0.959}, {"measurement": "GI50", "setting": "Colon cancer subpanel; Homo sapiens, average sensitivity of all cell lines of the Colon cancer subpanel, read-out: GI50 Subpanel MID b", "value": 3.13, "unit": "µM"}, {"measurement": "GI50", "setting": "Renal cancer subpanel; Homo sapiens, average sensitivity of all cell lines of the Renal cancer subpanel, read-out: GI50 Subpanel MID b", "value": 5.77, "unit": "µM"}, {"measurement": "GI50 Selectivity Ratio (MID a/MID b)", "setting": "Renal cancer subpanel; Renal cancer subpanel", "value": 0.52}, {"measurement": "CC50", "setting": "A549/ATCC; [2]", "value": "> 100", "unit": "µM"}, {"measurement": "GI50", "setting": "A549/ATCC; [3]", "value": 3.55, "unit": "µM"}, {"measurement": "TGI Conc. per Cell Lines", "setting": "A549/ATCC", "value": 69.70, "unit": "µM"}, {"measurement": "GI50", "setting": "Melanoma subpanel; Homo sapiens, average sensitivity of all cell lines of the Melanoma subpanel, read-out: GI50 Subpanel MID b", "value": 2.78, "unit": "µM"}, {"measurement": "GI50 Selectivity Ratio (MID a/MID b)", "setting": "Melanoma subpanel; Melanoma subpanel", "value": 1.08}, {"measurement": "CC50", "setting": "NCI-H322M; [2]", "value": "> 100", "unit": "µM"}, {"measurement": "GI50", "setting": "NCI-H322M; [3]", "value": 3.54, "unit": "µM"}, {"measurement": "TGI Conc. per Cell Lines", "setting": "NCI-H322M", "value": 19.80, "unit": "µM"}, {"measurement": "LC50", "setting": "OVCAR-5; Homo sapiens, 48 h", "value": 5.73, "unit": "µM"}, {"measurement": "GI50", "setting": "OVCAR-5; [3]", "value": 1.69, "unit": "µM"}, {"measurement": "TGI Conc. per Cell Lines", "setting": "OVCAR-5", "value": 3.11, "unit": "µM"}, {"measurement": "GI50", "setting": "[1]; average sensitivity of all cell lines, read-out: GI50 MID a", "value": 3, "unit": "µM"}, {"measurement": "GI50", "setting": "[1]; most of the tested cell lines across nine subpanels, read-out: GI50 values, range across nine subpanels", "value": "1.85 to 5.76", "unit": "µM"}, {"measurement": "LC50", "setting": "OVCAR-4; Homo sapiens, 48 h", "value": 7.04, "unit": "µM"}, {"measurement": "GI50", "setting": "OVCAR-4; [3]", "value": 1.75, "unit": "µM"}, {"measurement": "TGI Conc. per Cell Lines", "setting": "OVCAR-4", "value": 3.51, "unit": "µM"}, {"measurement": "TGI Conc. per Cell Lines", "setting": "A498", "value": 89.10, "unit": "µM"}, {"measurement": "LC50", "setting": "A498; Homo sapiens, 48 h", "value": "> 100", "unit": "µM"}, {"measurement": "GI50", "setting": "A498; [3]", "value": 24.1, "unit": "µM"}, {"measurement": "GI50", "setting": "M14; [3]", "value": 1.79, "unit": "µM"}, {"measurement": "TGI Conc. per Cell Lines", "setting": "M14", "value": 3.86, "unit": "µM"}, {"measurement": "TGI Conc. per Cell Lines", "setting": "DU-145", "value": 4.01, "unit": "µM"}, {"measurement": "GI50", "setting": "DU-145; [3]", "value": 1.94, "unit": "µM"}, {"measurement": "TGI Conc. per Cell Lines", "setting": "HOP-62", "value": 3.42, "unit": "µM"}, {"measurement": "CC50", "setting": "HOP-62; [2]", "value": 6.93, "unit": "µM"}, {"measurement": "GI50", "setting": "HOP-62; [3]", "value": 1.69, "unit": "µM"}, {"measurement": "LC50", "setting": "OVCAR-3; 48 h", "value": "> 100", "unit": "µM"}, {"measurement": "GI50", "setting": "OVCAR-3; read-out: GI50 Conc. per Cell Lines", "value": 4.26, "unit": "µM"}, {"measurement": "GI50", "setting": "Ovarian cancer subpanel; Homo sapiens, average sensitivity of all cell lines of the Ovarian cancer subpanel, read-out: GI50 Subpanel MID b", "value": 2.24, "unit": "µM"}, {"measurement": "GI50 Selectivity Ratio (MID a/MID b)", "setting": "Ovarian cancer subpanel; Ovarian cancer subpanel", "value": 1.34}, {"measurement": "GI50", "setting": "OVCAR-8; [3]", "value": 2.19, "unit": "µM"}, {"measurement": "TGI Conc. per Cell Lines", "setting": "OVCAR-8", "value": 4.89, "unit": "µM"}, {"measurement": "CC50", "setting": "IGROV1; Homo sapiens, IGROV-1, 48 h, read-out: LC50 (the source's name)", "value": 9.07, "unit": "µM"}, {"measurement": "GI50", "setting": "IGROV1; Homo sapiens, IGROV-1, read-out: GI50 Conc. per Cell Lines", "value": 2.09, "unit": "µM"}, {"measurement": "TGI Conc. per Cell Lines", "setting": "IGROV1", "value": 4.35, "unit": "µM"}, {"measurement": "CC50", "setting": "SK-MEL-2; [2]", "value": "> 100", "unit": "µM"}, {"measurement": "GI50", "setting": "SK-MEL-2; [3]", "value": 2.88, "unit": "µM"}, {"measurement": "TGI Conc. per Cell Lines", "setting": "SK-MEL-2", "value": 8.96, "unit": "µM"}, {"measurement": "TGI Conc. per Cell Lines", "setting": "CAKI-1", "value": 3.06, "unit": "µM"}, {"measurement": "LC50", "setting": "CAKI-1; Homo sapiens, 48 h", "value": 5.74, "unit": "µM"}, {"measurement": "GI50", "setting": "CAKI-1; [3]", "value": 1.63, "unit": "µM"}, {"measurement": "CC50", "setting": "SR; [2]", "value": "> 100", "unit": "µM"}, {"measurement": "TGI Conc. per Cell Lines", "setting": "SR", "value": "˃100 µM"}, {"measurement": "CC50", "setting": "SF-295; [2]", "value": 6.15, "unit": "µM"}, {"measurement": "GI50", "setting": "SF-295; [3]", "value": 1.64, "unit": "µM"}, {"measurement": "TGI Conc. per Cell Lines", "setting": "SF-295", "value": 3.18, "unit": "µM"}, {"measurement": "CC50", "setting": "TK-10; [2]", "value": 7.9, "unit": "µM"}, {"measurement": "GI50", "setting": "TK-10; [3]", "value": 1.9, "unit": "µM"}, {"measurement": "TGI Conc. per Cell Lines", "setting": "TK-10", "value": 3.87, "unit": "µM"}, {"measurement": "CC50", "setting": "MDA-MB-435; [2]", "value": 5.72, "unit": "µM"}, {"measurement": "GI50", "setting": "MDA-MB-435; [3]", "value": 1.63, "unit": "µM"}, {"measurement": "TGI Conc. per Cell Lines", "setting": "MDA-MB-435", "value": 3.05, "unit": "µM"}]}]}
